Experimental data reported in ChEMBL document CHEMBL1201862, “PubChem BioAssay data set” (2004).
The source made the active and inactive calls.

Experiments:
[1] = Luminescence Cell-Based Dose Response HTS to Identify Inhibitors of 5'UTR Stem-Loop Driven Prion Protein mRNA Translation in H4 Neuroglioblastoma Cells. [Related pubchem assays: 1827 (Project Summary), 1813 (Primary HTS)]; format: functional
cells = format: functional
[2] = THP-1 cell cytotoxicity, dose response, cytotoxicity control for non-replicating M. tuberculosis project (AID 489025); format: functional
[3] = alpha-synuclein stem-loop luciferase translation blockers – H4 neuroglioma cells, luminescence, confirmation (AID 1988); format: functional, cell-based
Melanocortin receptor 4 = Melanocortin receptor 4 (Homo sapiens, UniProt P32245); format: functional, cell-based;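 note: Cell-based assay with luminescence read-out, confirmatory dose-response testing for agonist activity of biased ligands at MC4R; human U2OS cells with tagged receptor and beta-arrestin; potency of agonists that increase receptor coupling to beta-arrestin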
Sequence of Melanocortin receptor 4 (P32245 whole entry): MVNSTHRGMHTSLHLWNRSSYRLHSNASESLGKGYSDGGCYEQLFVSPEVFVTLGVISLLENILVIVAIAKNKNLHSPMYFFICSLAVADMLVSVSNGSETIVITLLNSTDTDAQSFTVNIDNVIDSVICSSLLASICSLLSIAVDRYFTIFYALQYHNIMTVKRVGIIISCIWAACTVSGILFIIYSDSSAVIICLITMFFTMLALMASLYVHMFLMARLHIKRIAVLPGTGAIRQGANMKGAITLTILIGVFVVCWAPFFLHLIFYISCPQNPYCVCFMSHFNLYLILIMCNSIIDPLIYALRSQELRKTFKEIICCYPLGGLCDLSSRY

[4] = HepG2 cell cytotoxicity, dose response, cytotoxicity control for non-replicating M. tuberculosis project (AID 489018); format: functional; settings: Mycobacterium tuberculosis
[5] = Vero E6 cell cytotoxicity, dose response, cytotoxicity control for non-replicating M. tuberculosis project, secondary assay (AID 492998); format: functional, VeroE6; settings: Vero C1008
[6] = luciferase reporter signal suppression in cells – H4 neuroglioma cells, luminescence, dose response (AID 1990); format: functional, cell-based
[7] = Luminescence Cell-Based Dose Confirmation HTS to Identify Inhibitors of Platelet Dense Granule Release. [Related pubchem assays: 1663 (Primary HTS), 1678 (Summary of Project)]; format: functional
[8] = nonselective StAR promoter luciferase inhibitors – cell-based, luminescence, luciferase reporter, counter-screen for LRH-1 inverse agonist project, dose response (AID 651969); format: functional
Steroidogenic factor 1 = Steroidogenic factor 1 (Homo sapiens, UniProt Q13285); experiment: Counterscreen for inverse agonists of the liver receptor homolog-1 (LRH-1; NR5A2): Luminescence-based cell-based high throughput dose response assay to identify inverse agonists of the Steroidogenic Factor 1 Nuclear Receptor (SF1; NR5A1).; format: functional
Sequence of Steroidogenic factor 1 (Q13285 whole entry): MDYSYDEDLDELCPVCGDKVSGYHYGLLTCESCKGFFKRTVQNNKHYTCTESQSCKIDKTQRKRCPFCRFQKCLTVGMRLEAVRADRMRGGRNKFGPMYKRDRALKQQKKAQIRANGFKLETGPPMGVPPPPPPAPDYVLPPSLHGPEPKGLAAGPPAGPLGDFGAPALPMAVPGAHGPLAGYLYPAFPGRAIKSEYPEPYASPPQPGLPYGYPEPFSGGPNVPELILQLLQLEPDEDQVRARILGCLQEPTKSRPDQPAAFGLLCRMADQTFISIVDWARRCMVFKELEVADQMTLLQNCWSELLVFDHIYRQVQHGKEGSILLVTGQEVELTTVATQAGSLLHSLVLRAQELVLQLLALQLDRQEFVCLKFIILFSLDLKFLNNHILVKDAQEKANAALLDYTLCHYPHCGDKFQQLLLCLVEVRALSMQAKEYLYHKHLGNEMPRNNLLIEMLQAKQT

[9] = biological target: Luciferin 4-monooxygenase (Photinus pyralis, UniProt P08659); experiment: inhibition of purified Photinus pyralis luciferase – biochemical, luminescence, dose response (AID 1891)
Sequence of Luciferin 4-monooxygenase (P08659 whole entry): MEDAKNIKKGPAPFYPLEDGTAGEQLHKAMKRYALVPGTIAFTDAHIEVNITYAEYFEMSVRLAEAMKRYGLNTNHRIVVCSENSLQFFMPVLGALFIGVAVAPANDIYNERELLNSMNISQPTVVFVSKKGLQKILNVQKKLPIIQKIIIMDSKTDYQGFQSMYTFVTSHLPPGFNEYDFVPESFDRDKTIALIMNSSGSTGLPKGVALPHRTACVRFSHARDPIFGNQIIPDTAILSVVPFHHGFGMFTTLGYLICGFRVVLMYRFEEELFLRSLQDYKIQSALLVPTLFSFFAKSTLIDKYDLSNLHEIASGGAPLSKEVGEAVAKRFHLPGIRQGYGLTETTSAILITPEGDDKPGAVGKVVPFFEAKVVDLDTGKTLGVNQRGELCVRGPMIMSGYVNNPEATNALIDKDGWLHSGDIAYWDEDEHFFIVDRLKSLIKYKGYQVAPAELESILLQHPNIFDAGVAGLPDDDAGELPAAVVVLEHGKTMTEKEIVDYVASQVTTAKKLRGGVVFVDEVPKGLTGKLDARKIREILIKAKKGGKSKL

[10] = biological target: Nuclear receptor subfamily 5 group A member 2 (Homo sapiens, UniProt O00482); format: functional, cell-based;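 note: HEK293T cells transfected with LRH-1 and a StAR promoter luciferase reporter; potency for inhibitors that lower LRH-1 driven reporter light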
Sequence of Nuclear receptor subfamily 5 group A member 2 (O00482 whole entry): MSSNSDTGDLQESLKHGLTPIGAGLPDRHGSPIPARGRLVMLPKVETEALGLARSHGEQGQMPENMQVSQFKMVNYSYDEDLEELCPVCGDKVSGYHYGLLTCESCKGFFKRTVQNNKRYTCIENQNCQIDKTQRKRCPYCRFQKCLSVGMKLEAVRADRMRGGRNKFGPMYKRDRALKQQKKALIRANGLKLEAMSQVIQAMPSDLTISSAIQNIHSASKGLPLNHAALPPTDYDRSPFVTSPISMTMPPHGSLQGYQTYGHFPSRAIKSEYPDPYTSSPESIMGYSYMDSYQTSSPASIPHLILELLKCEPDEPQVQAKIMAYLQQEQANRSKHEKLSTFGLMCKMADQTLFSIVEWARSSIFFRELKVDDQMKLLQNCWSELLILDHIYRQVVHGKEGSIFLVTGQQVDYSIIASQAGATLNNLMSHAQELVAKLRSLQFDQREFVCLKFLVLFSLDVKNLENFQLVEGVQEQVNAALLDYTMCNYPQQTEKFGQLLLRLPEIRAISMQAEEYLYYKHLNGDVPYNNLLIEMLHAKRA

[11] = biological target: V-type proton ATPase subunit c' (Saccharomyces cerevisiae S288c, UniProt P32842); experiment: Dose Response of Small Molecules that Regulate V-ATPase Proton Transport in Yeast using pHLuorin, Cherry Pick 2.; format: functional; settings: read-out: EC50_MICROM
Sequence of V-type proton ATPase subunit c' (P32842 whole entry): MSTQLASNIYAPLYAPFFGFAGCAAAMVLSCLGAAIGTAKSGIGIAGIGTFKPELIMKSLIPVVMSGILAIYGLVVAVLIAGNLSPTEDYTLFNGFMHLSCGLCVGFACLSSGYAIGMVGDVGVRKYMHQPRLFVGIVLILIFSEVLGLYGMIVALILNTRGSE

Vero = experiment: cells; format: functional; settings: Chlorocebus sabaeus
[12] = biological target: Induced myeloid leukemia cell differentiation protein Mcl-1 (Homo sapiens, UniProt Q07820); format: functional
Sequence of Induced myeloid leukemia cell differentiation protein Mcl-1 (Q07820 whole entry, the tested form may be a part): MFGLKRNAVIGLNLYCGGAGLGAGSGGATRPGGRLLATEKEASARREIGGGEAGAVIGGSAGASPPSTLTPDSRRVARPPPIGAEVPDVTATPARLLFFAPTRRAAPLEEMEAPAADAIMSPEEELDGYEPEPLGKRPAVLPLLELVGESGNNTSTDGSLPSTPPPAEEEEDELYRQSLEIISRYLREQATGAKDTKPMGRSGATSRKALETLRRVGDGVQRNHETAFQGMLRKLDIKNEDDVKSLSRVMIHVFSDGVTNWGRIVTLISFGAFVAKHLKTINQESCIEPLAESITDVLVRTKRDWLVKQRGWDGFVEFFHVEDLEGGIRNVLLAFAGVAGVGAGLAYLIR

[13] = biological target: Hepatocyte nuclear factor 4-alpha (Homo sapiens, UniProt P41235); format: functional, cell-based;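 note: biochemical luminescence-based dose-response counterscreen measuring inhibition of HNF4 dimerization, run alongside a screen for blockers of ABHD5–perilipin-5 interaction; split luciferase complementation of HNF4 fusion proteins in cell lysate measuring dimerization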
Sequence of Hepatocyte nuclear factor 4-alpha (P41235 whole entry, the tested form may be a part): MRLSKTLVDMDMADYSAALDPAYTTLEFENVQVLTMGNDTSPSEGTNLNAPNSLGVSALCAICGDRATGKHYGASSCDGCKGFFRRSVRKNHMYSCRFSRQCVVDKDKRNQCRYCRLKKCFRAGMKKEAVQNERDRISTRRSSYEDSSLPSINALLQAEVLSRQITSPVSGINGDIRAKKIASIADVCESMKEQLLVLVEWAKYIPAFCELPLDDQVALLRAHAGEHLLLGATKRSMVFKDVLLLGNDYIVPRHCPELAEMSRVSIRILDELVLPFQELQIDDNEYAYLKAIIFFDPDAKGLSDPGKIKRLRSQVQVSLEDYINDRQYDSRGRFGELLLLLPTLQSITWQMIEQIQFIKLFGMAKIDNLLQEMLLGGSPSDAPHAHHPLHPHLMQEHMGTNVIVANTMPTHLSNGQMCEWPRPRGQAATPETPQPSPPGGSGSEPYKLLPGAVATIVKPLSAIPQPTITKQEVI

[14] = biological target: Tyrosine-protein phosphatase non-receptor type 5 (Homo sapiens, UniProt P54829); experiment: PTPN5 enzyme inhibition – biochemical, fluorescence intensity, uHTS hits, confirmation (AID 602372); format: functional; settings: read-out: IC50_Mean
Sequence of Tyrosine-protein phosphatase non-receptor type 5 (P54829 whole entry): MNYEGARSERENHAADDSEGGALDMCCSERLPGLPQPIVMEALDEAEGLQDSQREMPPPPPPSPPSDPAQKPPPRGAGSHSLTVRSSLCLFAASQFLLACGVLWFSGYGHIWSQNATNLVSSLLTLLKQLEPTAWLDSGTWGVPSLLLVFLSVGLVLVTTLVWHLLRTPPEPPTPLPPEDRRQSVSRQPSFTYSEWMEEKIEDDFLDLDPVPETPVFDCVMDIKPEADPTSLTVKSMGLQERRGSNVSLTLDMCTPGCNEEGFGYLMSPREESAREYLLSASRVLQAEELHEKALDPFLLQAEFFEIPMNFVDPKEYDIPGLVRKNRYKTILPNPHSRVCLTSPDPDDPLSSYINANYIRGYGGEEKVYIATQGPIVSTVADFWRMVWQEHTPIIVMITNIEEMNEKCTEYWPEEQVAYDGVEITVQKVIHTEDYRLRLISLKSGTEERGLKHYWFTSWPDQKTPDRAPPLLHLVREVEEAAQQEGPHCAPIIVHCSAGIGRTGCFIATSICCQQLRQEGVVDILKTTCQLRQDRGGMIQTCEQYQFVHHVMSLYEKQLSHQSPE

[15] = biological target: Tyrosine-protein phosphatase non-receptor type 11 (Homo sapiens, UniProt Q06124); experiment: PTPN11 enzyme inhibitors – biochemical, selectivity assay for STEP inhibitor project, dose response (AID 602367); format: functional; settings: read-out: IC50_Mean
Sequence of Tyrosine-protein phosphatase non-receptor type 11 (Q06124 whole entry): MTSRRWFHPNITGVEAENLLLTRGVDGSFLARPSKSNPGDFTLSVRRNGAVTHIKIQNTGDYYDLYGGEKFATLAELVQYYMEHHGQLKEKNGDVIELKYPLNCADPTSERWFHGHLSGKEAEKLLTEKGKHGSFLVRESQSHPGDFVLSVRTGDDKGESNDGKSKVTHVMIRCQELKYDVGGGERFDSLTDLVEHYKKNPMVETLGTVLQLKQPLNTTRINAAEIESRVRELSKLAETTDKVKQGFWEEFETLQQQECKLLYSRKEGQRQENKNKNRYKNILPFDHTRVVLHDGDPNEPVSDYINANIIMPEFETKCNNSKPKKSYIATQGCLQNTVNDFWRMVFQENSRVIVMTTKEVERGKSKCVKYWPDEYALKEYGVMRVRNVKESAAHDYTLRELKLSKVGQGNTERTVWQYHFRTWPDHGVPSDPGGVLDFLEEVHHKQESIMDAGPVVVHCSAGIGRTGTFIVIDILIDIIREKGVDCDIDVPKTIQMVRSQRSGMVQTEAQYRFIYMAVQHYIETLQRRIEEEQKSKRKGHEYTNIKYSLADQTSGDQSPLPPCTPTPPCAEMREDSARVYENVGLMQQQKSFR

[16] = biological target: Dual specificity protein phosphatase 3 (Homo sapiens, UniProt P51452); experiment: VHR phosphatase inhibition, dose response, selectivity assay for STEP inhibitor project, biochemical (AID 602374); format: functional; settings: read-out: IC50_Mean
Sequence of Dual specificity protein phosphatase 3 (P51452 whole entry): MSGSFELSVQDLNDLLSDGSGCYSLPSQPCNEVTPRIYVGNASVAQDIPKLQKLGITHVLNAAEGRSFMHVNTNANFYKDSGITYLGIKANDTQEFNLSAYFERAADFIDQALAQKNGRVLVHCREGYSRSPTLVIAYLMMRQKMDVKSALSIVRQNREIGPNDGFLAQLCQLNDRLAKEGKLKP

CN(C)CCCN(C(=O)CCc1ccccc1)c1nc2ccc(Cl)cc2s1
EC50 [1]: > 120 µM (not active)
IC50 (cells): 22.9 µM (active)
CC50 [2]: 16.6 µM (active)
EC50 [3]: > 120 µM (not active)
EC50 (Melanocortin receptor 4): > 89.2 µM (inactive)
CC50 [4]: 12.4 µM (active)
CC50 [5]: 17.1 µM (active)
EC50 [6]: > 60 µM (not active)

CCC(=O)Nc1nnc(SCC(=O)NCCc2ccc(OC)c(OC)c2)s1
EC50 [7]: > 112 µM (not active)
IC50 [8]: 35.9 µM (inactive)
IC50 (Steroidogenic factor 1): 2.05 µM (active)
EC50 [9]: > 112 µM (not active)
IC50 [10]: 12 µM (inactive)

CN1C(=O)/C(=C\c2ccc(Br)s2)C(=O)NC1=S
EC50 [11]: 6.43 µM (active)
CC50 (Vero): 22.9 µM (active)

Cc1cccc(NC(=O)CSc2nnc(-c3ccco3)c(-c3ccco3)n2)c1
IC50 [12]: 5.78 µM (active)
IC50 [13]: 1.42 µM (active)

Cc1ccc(NC(=O)CCn2c(=S)oc3ccccc32)cc1F
IC50 [14]: > 80 µM (inactive)
IC50 [15]: 3.14 µM (active)
IC50 [16]: 7.02 µM (active)
